Assay results: patent publication US20100168102A9, “Amide Derivatives as Kinase Inhibitors” (Devgen NV, priority 2005, published 2010)
Where a name gives a salt, the structure may show the parent alone. Read-outs that look alike come from different tables or passages of the source.

How the values were obtained:
PKC epsilon = biological target: T1, PKC epsilon (Homo sapiens, UniProt Q02156); experiment: Biochemical assay for PKC epsilon (fluorescence polarization, Protein Kinase C Assay Kit, Red); conditions: read-out: IC50 μM PKCε
T1 construct: purchased Invitrogen P2282
T1 sequence (Q02156 1-737): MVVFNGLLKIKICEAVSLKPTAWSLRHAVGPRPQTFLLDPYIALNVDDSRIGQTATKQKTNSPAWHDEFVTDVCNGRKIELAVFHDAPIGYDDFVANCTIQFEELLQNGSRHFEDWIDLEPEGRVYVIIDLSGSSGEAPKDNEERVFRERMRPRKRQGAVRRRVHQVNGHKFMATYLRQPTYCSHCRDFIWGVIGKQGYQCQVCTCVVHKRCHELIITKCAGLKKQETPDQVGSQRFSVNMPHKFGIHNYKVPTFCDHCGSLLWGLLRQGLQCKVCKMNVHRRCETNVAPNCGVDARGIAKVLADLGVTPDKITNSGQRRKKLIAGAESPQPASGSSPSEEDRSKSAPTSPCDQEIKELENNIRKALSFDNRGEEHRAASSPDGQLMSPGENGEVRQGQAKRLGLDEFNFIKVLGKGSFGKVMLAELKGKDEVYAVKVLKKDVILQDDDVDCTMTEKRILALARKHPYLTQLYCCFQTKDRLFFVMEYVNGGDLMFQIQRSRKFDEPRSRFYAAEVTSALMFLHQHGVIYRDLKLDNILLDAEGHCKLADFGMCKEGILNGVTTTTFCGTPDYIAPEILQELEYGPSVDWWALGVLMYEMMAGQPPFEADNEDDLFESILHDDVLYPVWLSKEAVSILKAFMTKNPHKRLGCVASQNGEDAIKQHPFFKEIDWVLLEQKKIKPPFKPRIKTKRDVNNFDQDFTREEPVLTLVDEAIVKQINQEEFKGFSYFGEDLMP
Procedure, shortened: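 PKC epsilon at 10 ng/ml final was preincubated 30 min at room temperature with compound in HEPES pH 7.4 with DTT and Triton X-100. ATP/protein substrate was then added in buffer with MgCl2 and CaCl2 for 80 min. The reaction was stopped with EDTA, phosphorylation was detected by fluorescence polarization with rhodamine tracer and anti-phosphoserine antibody, and IC50 values came from curve fits.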

human ROCKα/ROCKII mix = biological target: T2, human ROCKα/ROCKII mix (Homo sapiens, UniProt O75116); experiment: Biochemical assay for ROCK (fluorescence polarization, ROCK IMAP Kit)
T2 construct: purchased Upstate Biotechnology 14-451
T2 sequence (O75116 11-552 limits assumed): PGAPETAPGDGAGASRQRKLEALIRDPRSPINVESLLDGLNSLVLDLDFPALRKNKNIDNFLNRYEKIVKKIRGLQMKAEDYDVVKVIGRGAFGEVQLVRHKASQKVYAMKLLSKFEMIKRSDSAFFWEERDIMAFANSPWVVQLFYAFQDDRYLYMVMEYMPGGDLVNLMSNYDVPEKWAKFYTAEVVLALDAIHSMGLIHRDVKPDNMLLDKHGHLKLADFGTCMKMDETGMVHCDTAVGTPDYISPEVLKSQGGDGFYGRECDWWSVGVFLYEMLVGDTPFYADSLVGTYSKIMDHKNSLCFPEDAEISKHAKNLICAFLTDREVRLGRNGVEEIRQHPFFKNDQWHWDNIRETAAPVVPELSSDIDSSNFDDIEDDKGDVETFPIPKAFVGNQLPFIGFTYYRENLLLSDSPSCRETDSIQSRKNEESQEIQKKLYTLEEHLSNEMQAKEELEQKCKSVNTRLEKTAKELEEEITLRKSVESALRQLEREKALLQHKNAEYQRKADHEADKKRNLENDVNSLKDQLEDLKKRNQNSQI
Method: The compounds were tested for inhibition of human ROCKα/ROCKII mix.
The inhibition assays were performed with a fluorescence polarization (FP) assay using the commercially available ROCK IMAP Kit from Molecular Devices (Product ID. No. R8093), essentially in accordance with the protocol supplied by the manufacturer. […] The enzyme mix ROCKα/ROCKII was obtained from Upstate Biotechnology (Product ID No 14-451).
In summary, the compound was screened in the wells of a 384 well plate for enzymatic inhibition with concentrations varying from 100 μM to 0.3 nM using a stepwise 3 (or 2)-fold dilution.
To perform the assay, 1 μl of a solution of the compound to be tested in DMSO (at each concentration) was added to 2 μl of a solution of the enzyme in 10 mM Tris-HCl , 10 mM MgCl2, 0.1% BSA, 0.05% NaN3, pH 7.2. The final concentration of the enzyme was 2.6 nM.
After incubating for 30 minutes at room temperature, 2 μl of a mixture of ATP and the protein substrate in 10 mM Tris-HCl, 10 mM MgCl2, 0.1% BSA, 0.05% NaN3, pH 7.2 was added. The final concentration of the ATP was 10 μM and final concentration of protein substrate was 0.2 μM.
After incubating for 60 minutes at room temperature, 12 μl of the IMAP Binding Solution (mix of the IMAP Binding Buffer A (1×) and the IMAP Binding Reagent (from the ROCK IMAP kit)) was added.
The mixture thus obtained (total volume: 17 μl) was incubated for 60 minutes at room temperature, upon which the fluorescence polarization was measured using an automated plate reader (Perkin Elmer, Model Envision 2100-0010 HTS) with FP filters: excitation filter FITC FP 480 and emission filters FITC FP P-pol 535 and FITC FP S-pol 535 (Perkin-Elmer). The results were fitted to a curve using the XL-Fit algorithm and IC50 values were calculated for each fitted curve, again using the XL-Fit algorithm.

[1] = Table 2, compounds of Formula XIII
[2] = compounds of Formula XIV, Table 3

Row | IC50 (PKC epsilon) [µM] | IC50 (human ROCKα/ROCKII mix) [µM] | Compound | also measured
1 |  |  | 4-{1-Amino-2-[(4-methoxy- cyclohexanecarbonyl)-amino]-ethyl}- N-pyridin-4-yl-benzamide [Compound 44] | IC50 (PKC epsilon; [1]): 5 to 50 µM; IC50 (human ROCKα/ROCKII mix; [1]): 0.5 to 5 µM
2 |  |  | 4-{1-Amino-2-[(furan-2- ylmethyl)-carbamoyl]-ethyl}- N-pyridin-4-yl-benzamide [Compound 278] | IC50 (PKC epsilon; [2]): 0.5 to 5 µM; IC50 (human ROCKα/ROCKII mix; [2]): 0.05 to 0.5 µM
3 |  |  | 4-{1-Amino-2-[(pyridin-2- ylmethyl)-carbamoyl]-ethyl}- N-pyridin-4-yl-benzamide [Compound 277] | IC50 (PKC epsilon; [2]): 0.5 to 5 µM; IC50 (human ROCKα/ROCKII mix; [2]): 0.05 to 0.5 µM
4 |  |  | 4-{1-Amino-2-[(pyridin-4- ylmethyl)-carbamoyl]-ethyl}- N-pyridin-4-yl-benzamide [Compound 276] | IC50 (PKC epsilon; [2]): 0.5 to 5 µM; IC50 (human ROCKα/ROCKII mix; [2]): 0.05 to 0.5 µM
5 |  |  | 4-{1-Amino-2-[(thiophen-2- ylmethyl)-carbamoyl]-ethyl}- N-pyridin-4-yl-benzamide [Compound 279] | IC50 (PKC epsilon; [2]): 0.5 to 5 µM; IC50 (human ROCKα/ROCKII mix; [2]): 0.05 to 0.5 µM
6 |  |  | 4-{1-Amino-2-[ethyl-(4-nitro- benzyl}-carbamoyl]-ethyl)-N- pyridin-4-yl-benzamide [Compound 274] | IC50 (PKC epsilon; [2]): 0.5 to 5 µM; IC50 (human ROCKα/ROCKII mix; [2]): 0.05 to 0.5 µM
7 |  |  | 4-{1-amino-2-[2-(4- trifluoromethyl-phenyl)- ethylcarbamoyl]-ethyl}-N- pyridin-4-yl-benzamide [Compound 309] | IC50 (PKC epsilon; [2]): 0.5 to 5 µM; IC50 (human ROCKα/ROCKII mix; [2]): 0.05 to 0.5 µM
8 |  |  | 4-{1-amino-2-[2-(4-bromo-2- methoxy-phenyl)- ethylcarbamoyl]-ethyl}-N- pyridin-4-yl-benzamide [Compound 310] | IC50 (PKC epsilon; [2]): 0.5 to 5 µM; IC50 (human ROCKα/ROCKII mix; [2]): 0.05 to 0.5 µM
9 |  |  | 4-{1-amino-2-[2-(4-methy)- octanoylamino]-ethyl}-N-pyridin-4-yl- benzamide [Compound 37] | IC50 (PKC epsilon; [1]): 0.5 to 5 µM; IC50 (human ROCKα/ROCKII mix; [1]): 0.05 to 0.5 µM
10 | < 0.05 | < 0.05 | N[C@H](CC(=O)NC1COc2ccccc21)c1ccc(C(=O)Nc2ccncc2)cc1 (mixture of isomers) [Compound 403, 4-[(R)-1-Amino-2-(2,3-dihydro-benzofuran-3-ylcarbamoyl)-ethyl]-N-pyridin-4-yl-benzamide dihydrochloric acid salt] | 
11 | 0.5 to 5 | 0.05 to 0.5 | N[C@@H](CC(=O)NC1COc2ccccc21)c1ccc(C(=O)Nc2ccncc2)cc1 (mixture of isomers) [Compound 404, 4-[(S)-1-Amino-2-(2,3-dihydro-benzofuran-3-ylcarbamoyl)-ethyl]-N-pyridin-4-yl-benzamide dihydrochloric acid salt] | 
12 |  |  | CC(C)(C)ON=Cc1cccc(C(=O)NCC(N)c2ccc(C(=O)Nc3ccncc3)cc2)c1 (racemic) [Compound 101, 4-{1-amino-2-[(3-tert-butoxyimino-methyl)-benzoylamino]-ethyl}-N-pyridin-4-yl-benzamide] | IC50 (PKC epsilon; [1]): 0.5 to 5 µM; IC50 (human ROCKα/ROCKII mix; [1]): 0.5 to 5 µM
13 |  |  | CC(C)(C)ON=Cc1ccc(C(=O)NCC(N)c2ccc(C(=O)Nc3ccncc3)cc2)cc1 (racemic) [Compound 102, 4-{1-amino-2-[(4-tert-butoxyimino-methyl)-benzoylamino]-ethyl}-N-pyridin-4-yl-benzamide] | IC50 (PKC epsilon; [1]): 5 to 50 µM; IC50 (human ROCKα/ROCKII mix; [1]): 0.5 to 5 µM
14 |  |  | NC(CC(=O)NC1CCCc2ccccc21)c1ccc(C(=O)Nc2ccncc2)cc1 (single isomer, unassigned) [Compound 221] | IC50 (PKC epsilon; [2]): 0.05 to 0.5 µM; IC50 (human ROCKα/ROCKII mix; [2]): 0.05 to 0.5 µM
15 |  |  | NC(CC(=O)NC1CCCc2ccccc21)c1ccc(C(=O)Nc2ccncc2)cc1 (single isomer, unassigned) [Compound 222] | IC50 (PKC epsilon; [2]): 5 to 50 µM; IC50 (human ROCKα/ROCKII mix; [2]): 0.05 to 0.5 µM
16 | 0.5 to 5 | 0.5 to 5 | CCNC(=S)NCC(N)c1ccc(C(=O)Nc2ccncc2)cc1 (centres unmarked) [Compound 1, 4-[1-amino-2-(3-ethyl-thioureido)-ethyl]-N-pyridin-4-yl-benzamide] | 
17 | 0.5 to 5 | 0.5 to 5 | CCCCNC(=O)NCC(N)c1ccc(C(=O)Nc2ccncc2)cc1 (centres unmarked) [Compound 2, 4-[1-amino-2-(3-butyl-ureido)-ethyl]-N-pyridin-4-yl-benzamide] | 
18 | 0.5 to 5 | 0.5 to 5 | CC(C)(C)NC(=O)NCC(N)c1ccc(C(=O)Nc2ccncc2)cc1 (centres unmarked) [Compound 3, 4-[1-amino-2-(3-tert-butyl-ureido)-ethyl]-N-pyridin-4-yl-benzamide] | 
19 | 0.5 to 5 | 0.5 to 5 | NC(CNC(=O)NC1CCCC1)c1ccc(C(=O)Nc2ccncc2)cc1 (centres unmarked) [Compound 4, 4-[1-amino-2-(3-cyclopentyl-ureido)-ethyl]-N-pyridin-4-yl-benzamide] | 
20 | 5 to 50 | 0.5 to 5 | NC(CNC(=O)NC1CCCCC1)c1ccc(C(=O)Nc2ccncc2)cc1 (centres unmarked) [Compound 5, 4-[1-amino-2-(3-cyclohexyl-ureido)-ethyl]-N-pyridin-4-yl-benzamide] | 
21 | 5 to 50 | 0.5 to 5 | CCOC(=O)CCNC(=O)NCC(N)c1ccc(C(=O)Nc2ccncc2)cc1 (centres unmarked) [Compound 6, 3-(3-{2-amino-2-[4-(pyridin-4-ylcarbamoyl)-phenyl]-ethyl}-ureido)-propionic acid ethyl ester] | 
22 | 0.5 to 5 | 0.05 to 0.5 | NC(CNC(=O)NCc1ccccc1)c1ccc(C(=O)Nc2ccncc2)cc1 (centres unmarked) [Compound 7, 4-[1-amino-2-(3-benzyl-ureido)-ethyl]-N-pyridin-4-yl-benzamide] | 
23 | 0.5 to 5 | 0.05 to 0.5 | Cc1ccc(CNC(=O)NCC(N)c2ccc(C(=O)Nc3ccncc3)cc2)cc1 (centres unmarked) [Compound 8, 4-{1-amino-2-[3-(4-methyl-benzyl)-ureido]-ethyl}-N-pyridin-4-yl-benzamide] | 

Row | Compound | IC50 (PKC epsilon) [µM] | IC50 (human ROCKα/ROCKII mix) [µM] | also measured
24 | 4-{1-Amino-2-[methyl-(1- phenyl- cyclopropanecarbonyl)- amino]-ethyl}- N-pyridin-4-yl-benzamide [Compound 452] | 5 to 50 | 0.5 to 5 | 
25 | 4-{1-Amino-2-[methyl-(1- thiophen-2-yl- cyclopropanecarbonyl)- amino]-ethyl}- N-pyridin-4-yl-benzamide [Compound 448] | 5 to 50 | 0.5 to 5 | 
26 | 4-{1-Amino-2-[methyl-(1- thiophen-3-yl- cyclopropanecarbonyl)- amino]-ethyl}- N-pyridin-4-yl-benzamide [Compound 450] | 5 to 50 | 0.5 to 5 | 
27 | 4-{1-Amino-2-[methyl-(2- methyl-2-thiophen-2-yl- propionyl)- amino]-ethyl}- N-pyridin-4-yl-benzamide [Compound 447] | 0.5 to 5 | 0.5 to 5 | 
28 | 4-{1-Amino-2-[methyl-(2- methyl-2-thiophen-3-yl- propionyl)- amino]-ethyl}- N-pyridin-4-yl-benzamide [Compound 449] | 5 to 50 | 0.5 to 5 | 
29 | 4-{1-Amino-2-[methyl-(2- naphthalen-1-yl-acetyl)- amino]-ethyl}- N-pyridin-4-yl-benzamide [Compound 435] | 5 to 50 | 0.5 to 5 | 
30 | 4-{1-Amino-2-[methyl-(2- naphthalen-2-yl-acetyl)- amino]-ethyl}- N-pyridin-4-yl-benzamide [Compound 434] | 0.5 to 5 | 0.05 to 0.5 | 
31 | 4-{Amino-[1-(2-1H-indol-3-yl-acetyl)-pyrrolidin-2-yl]-methyl}-N-pyridin-4-yl-benzamide [Compound 545] | 0.5 to 5 | 0.05 to 0.5 | 
